Experimental findings from article PMC8041284, “Tunable Methacrylamides for Covalent Ligand Directed Release Chemistry” (Journal of the American Chemical Society, 2021) are described below.

By IC50 is commonly meant the concentration needed to halve the response being measured. A high value points to weaker potency. By inhibition is commonly meant the drop in the measured response relative to a control, in per cent.

The structures appear in SMILES notation. A value given as a limit tells only on which side of the number the result lay.

Experiment [1] in a line: GSH reactivity assay for model compounds (LC/MS). It counts as physicochemical. As to conditions: 100 μM 1i and 5 mM GSH in PBS buffer, pH 8, 37 °C (n = 3).
Description: LC/MS runs were performed on a Waters ACUITY UPLC class H instrument, in positive ion mode using electrospray ionization. […] The column was held at 40 °C, and the autosampler at 10 °C. Mobile phase A was 0.1% formic acid in the water, and mobile phase B was 0.1% formic acid in acetonitrile. The run flow was 0.3 mL/min. […] The column was held at 40 °C, and the autosampler at 10 °C. Mobile solution A was 0.1% formic acid in the water, and mobile phase B was 0.1% formic acid in acetonitrile.
All solvents were bubbled with argon. Reaction mixtures were kept at 37 °C with shaking. At various times 5 μL from the reaction mixture was injected into the LC/MS.
Experiment [2] deals with Mino cells. Kind of experiment: In-gel fluorescence activity-based profiling (in situ proteomic labeling). It counts as cell-based. As to conditions: Mino cells treated for 2 h, TAMRA-azide click. How it is done:
Mino cells were treated for 2 h with either 0.1% DMSO or the indicated concentrations of IA-alkyne, 2a, 2b, and 2c. The cells were lysed with RIPA buffer (Sigma), and protein concentration was determined using the BCA protein assay (Thermo Fisher Scientific). Lysates were then diluted to 2 mg/mL in PBS and clicked to TAMRA-azide (click chemistry tools). Click reaction was performed using a final concentration of 40 μM TAMRA-azide, 3 mM CuSO4, 3 mM tris(3-hydroxypropyltriazolylmethyl)amine (THPTA, Sigma), and 3.7 mM sodium L-ascorbate (Sigma) in a final volume of 60 μL. The samples were incubated at 25 °C for 2 h. A 20 μL amount of 4× LDS sample buffer (NuPAGE, Thermo Fischer Scientific) was added followed by a 10 min incubation at 70 °C. The samples were then loaded on a 4–20% Bis-Tris gel (SurePAGE, GeneScript) and imaged using a Typhoon FLA 9500 scanner.

In experiment [3] the target is wild-type BTK (Homo sapiens, UniProt Q06187). Description: In vitro kinase activity assay (Nanosyn).
Description: (§1) Kinase reactions are assembled in 384-well plates (Greiner) in a total volume of 20 μL. Test compounds were diluted in DMSO to a final concentration, while the final concentration of DMSO in all assays was kept at 1%. The compounds were incubated with the kinases for 2 h. […] The reaction was initiated by 2-fold dilution into a solution containing 5 μM ATP and 1 μM substrate in the kinase buffer
Experiment [4] deals with EGFR (Homo sapiens, UniProt P00533). Description: In vitro kinase activity assay (Nanosyn). As to conditions: rounded; 2 h preincubation, 5 μM ATP. It is filed as biochemical.
Description: as §1
in 100 mM HEPES, pH 7.5, 0.1% BSA, 0.01% Triton X-100, 1 mM DTT, 10 mM MnCl2.
initiated by 2-fold dilution into a solution containing 5 μM ATP and 1 μM substrate in the kinase buffer.
The test system of experiment [5] is primary mouse B cells. Kind of experiment: B-cell response experiment (anti-IgM activation, CD86 by flow cytometry). It counts as cell-based. As to conditions: representative FACS plot, concentration not given. For orientation: A flow cytometer gives signals particle by particle.
In experiment [6] the target is BLK (Homo sapiens, UniProt P51451). Kind of experiment: In vitro kinase activity assay (Nanosyn).
Description: as §1
Experiment [7] concerns the target T1, BMX (Homo sapiens, UniProt P51813).
T1 sequence (P51813 1-675): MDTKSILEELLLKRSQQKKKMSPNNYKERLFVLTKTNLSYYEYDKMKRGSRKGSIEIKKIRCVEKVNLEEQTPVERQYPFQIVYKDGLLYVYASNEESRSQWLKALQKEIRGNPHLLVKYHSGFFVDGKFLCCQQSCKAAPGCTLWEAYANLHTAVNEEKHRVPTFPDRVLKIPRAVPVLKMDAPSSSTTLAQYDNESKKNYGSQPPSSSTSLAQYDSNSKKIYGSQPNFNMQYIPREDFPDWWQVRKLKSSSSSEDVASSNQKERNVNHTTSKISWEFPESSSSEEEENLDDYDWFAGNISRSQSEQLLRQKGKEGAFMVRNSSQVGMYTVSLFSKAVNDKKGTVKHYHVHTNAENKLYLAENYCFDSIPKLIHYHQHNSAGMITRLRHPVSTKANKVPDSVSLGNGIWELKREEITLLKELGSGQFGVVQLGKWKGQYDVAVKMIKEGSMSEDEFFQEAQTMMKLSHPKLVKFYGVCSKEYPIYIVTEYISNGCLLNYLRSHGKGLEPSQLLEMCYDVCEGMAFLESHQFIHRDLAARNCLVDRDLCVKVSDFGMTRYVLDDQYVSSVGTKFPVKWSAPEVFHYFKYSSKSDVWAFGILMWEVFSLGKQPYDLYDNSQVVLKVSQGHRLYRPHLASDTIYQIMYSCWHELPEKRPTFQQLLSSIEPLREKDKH
Description: In vitro kinase activity assay (Nanosyn).
Description: as §1

The target of experiment [8] is ERBB2 (Homo sapiens, UniProt P04626). Kind of experiment: In vitro kinase activity assay (Nanosyn).
Description: as §1
Experiment [9] addresses T2, ITK (Homo sapiens, UniProt Q08881).
T2 sequence (Q08881 1-620): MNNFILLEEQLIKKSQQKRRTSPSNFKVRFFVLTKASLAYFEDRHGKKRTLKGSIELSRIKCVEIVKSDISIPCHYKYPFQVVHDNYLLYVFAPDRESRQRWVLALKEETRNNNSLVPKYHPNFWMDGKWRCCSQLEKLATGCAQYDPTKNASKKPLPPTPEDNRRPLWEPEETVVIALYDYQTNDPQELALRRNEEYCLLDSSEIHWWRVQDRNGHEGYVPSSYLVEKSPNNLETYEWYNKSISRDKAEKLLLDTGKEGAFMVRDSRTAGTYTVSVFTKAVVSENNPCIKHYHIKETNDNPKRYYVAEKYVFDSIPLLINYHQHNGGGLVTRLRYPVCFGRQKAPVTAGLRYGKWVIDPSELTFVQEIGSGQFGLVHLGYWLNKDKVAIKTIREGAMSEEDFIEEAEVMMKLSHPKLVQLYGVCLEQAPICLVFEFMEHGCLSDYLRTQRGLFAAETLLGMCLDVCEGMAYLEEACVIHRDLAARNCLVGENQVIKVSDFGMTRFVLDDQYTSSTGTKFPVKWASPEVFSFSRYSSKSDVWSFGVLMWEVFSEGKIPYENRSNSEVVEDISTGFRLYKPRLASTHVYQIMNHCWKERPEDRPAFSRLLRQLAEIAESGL
Kind of experiment: In vitro kinase activity assay (Nanosyn).
Description: as §1

The target in experiment [10] is T3, BTK (Homo sapiens, UniProt Q06187). Conditions: 0.75 uM BTK, […] probe 3l, 15 min preincubation, 10 µM, inhibitor, BTK inhibition (%).
In experiment [11] the target is T3, BTK. Kind of experiment: biochemical. As to conditions: read-out: BTK inhibition (%), 0.75 uM BTK, […] probe 3l, 15 min preincubation.

T3 sequence (Q06187 402-655 limits assumed): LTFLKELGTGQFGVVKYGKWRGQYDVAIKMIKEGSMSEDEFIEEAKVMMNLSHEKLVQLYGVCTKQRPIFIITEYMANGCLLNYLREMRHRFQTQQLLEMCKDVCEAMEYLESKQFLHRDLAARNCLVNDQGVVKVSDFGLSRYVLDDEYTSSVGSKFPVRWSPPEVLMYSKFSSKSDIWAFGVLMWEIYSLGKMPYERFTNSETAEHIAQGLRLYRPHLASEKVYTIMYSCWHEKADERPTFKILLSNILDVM
Sequence of wild-type BTK (Q06187 whole entry): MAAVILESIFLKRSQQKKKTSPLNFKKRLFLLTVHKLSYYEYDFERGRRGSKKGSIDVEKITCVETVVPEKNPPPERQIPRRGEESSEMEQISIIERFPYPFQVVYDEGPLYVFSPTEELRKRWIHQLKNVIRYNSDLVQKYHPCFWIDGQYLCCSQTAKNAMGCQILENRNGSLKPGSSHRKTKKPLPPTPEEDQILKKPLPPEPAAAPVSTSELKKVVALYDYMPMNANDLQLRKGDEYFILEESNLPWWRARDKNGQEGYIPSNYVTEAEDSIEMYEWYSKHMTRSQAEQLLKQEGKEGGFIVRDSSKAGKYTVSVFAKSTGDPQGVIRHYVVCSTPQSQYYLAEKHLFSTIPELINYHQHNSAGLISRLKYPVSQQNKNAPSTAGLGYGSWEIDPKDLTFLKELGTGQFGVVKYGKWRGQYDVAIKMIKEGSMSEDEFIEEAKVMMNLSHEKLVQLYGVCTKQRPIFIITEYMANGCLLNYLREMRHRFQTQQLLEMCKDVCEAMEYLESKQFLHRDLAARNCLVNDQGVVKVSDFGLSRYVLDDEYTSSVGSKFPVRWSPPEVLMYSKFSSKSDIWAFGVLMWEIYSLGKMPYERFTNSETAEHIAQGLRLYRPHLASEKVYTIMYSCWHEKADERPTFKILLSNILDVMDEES
Sequence of EGFR (P00533 25-1210): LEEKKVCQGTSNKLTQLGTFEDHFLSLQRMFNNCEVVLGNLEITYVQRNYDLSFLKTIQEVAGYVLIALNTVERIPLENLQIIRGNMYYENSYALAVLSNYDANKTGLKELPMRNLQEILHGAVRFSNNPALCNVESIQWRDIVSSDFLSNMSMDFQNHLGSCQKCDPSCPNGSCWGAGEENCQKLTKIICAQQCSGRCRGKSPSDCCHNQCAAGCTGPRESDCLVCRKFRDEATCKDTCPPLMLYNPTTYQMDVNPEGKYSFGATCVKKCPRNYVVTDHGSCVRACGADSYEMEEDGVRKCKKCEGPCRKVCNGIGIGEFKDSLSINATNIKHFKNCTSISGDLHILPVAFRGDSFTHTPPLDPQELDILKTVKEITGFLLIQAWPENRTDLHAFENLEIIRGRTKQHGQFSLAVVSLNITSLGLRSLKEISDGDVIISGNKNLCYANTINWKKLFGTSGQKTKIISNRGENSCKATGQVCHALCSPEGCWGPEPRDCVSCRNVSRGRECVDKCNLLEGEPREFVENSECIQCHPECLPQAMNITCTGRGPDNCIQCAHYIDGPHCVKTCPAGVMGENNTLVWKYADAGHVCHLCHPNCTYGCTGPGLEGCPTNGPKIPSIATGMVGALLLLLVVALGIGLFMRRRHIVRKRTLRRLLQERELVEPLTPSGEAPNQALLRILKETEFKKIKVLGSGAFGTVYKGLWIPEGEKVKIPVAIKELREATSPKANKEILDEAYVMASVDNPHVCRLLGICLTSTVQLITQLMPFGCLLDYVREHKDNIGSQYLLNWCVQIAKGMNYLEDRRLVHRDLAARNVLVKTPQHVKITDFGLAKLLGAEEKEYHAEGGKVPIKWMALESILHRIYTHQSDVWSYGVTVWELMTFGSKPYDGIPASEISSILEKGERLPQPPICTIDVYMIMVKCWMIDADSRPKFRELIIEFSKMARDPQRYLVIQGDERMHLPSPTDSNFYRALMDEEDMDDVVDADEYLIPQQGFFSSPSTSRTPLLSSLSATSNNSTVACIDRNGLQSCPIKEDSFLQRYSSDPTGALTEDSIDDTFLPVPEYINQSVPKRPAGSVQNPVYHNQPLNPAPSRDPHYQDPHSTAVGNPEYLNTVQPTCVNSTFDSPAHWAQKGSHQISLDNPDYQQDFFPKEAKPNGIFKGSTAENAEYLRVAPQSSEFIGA
Sequence of BLK (P51451 whole entry, species assumed): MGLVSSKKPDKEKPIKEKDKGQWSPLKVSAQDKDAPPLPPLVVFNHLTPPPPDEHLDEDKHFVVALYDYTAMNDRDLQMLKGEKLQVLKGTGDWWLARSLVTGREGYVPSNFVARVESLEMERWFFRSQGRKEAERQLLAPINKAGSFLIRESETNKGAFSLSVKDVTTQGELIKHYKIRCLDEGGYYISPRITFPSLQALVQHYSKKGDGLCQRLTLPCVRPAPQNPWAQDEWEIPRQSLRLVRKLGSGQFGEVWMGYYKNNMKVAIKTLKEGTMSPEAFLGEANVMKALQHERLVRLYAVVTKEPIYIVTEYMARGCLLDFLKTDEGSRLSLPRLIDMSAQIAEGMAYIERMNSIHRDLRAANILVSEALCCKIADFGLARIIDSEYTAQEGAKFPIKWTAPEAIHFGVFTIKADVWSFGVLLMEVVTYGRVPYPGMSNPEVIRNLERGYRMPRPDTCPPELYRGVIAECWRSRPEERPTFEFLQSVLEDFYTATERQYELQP
Sequence of ERBB2 (P04626 23-1255, species assumed): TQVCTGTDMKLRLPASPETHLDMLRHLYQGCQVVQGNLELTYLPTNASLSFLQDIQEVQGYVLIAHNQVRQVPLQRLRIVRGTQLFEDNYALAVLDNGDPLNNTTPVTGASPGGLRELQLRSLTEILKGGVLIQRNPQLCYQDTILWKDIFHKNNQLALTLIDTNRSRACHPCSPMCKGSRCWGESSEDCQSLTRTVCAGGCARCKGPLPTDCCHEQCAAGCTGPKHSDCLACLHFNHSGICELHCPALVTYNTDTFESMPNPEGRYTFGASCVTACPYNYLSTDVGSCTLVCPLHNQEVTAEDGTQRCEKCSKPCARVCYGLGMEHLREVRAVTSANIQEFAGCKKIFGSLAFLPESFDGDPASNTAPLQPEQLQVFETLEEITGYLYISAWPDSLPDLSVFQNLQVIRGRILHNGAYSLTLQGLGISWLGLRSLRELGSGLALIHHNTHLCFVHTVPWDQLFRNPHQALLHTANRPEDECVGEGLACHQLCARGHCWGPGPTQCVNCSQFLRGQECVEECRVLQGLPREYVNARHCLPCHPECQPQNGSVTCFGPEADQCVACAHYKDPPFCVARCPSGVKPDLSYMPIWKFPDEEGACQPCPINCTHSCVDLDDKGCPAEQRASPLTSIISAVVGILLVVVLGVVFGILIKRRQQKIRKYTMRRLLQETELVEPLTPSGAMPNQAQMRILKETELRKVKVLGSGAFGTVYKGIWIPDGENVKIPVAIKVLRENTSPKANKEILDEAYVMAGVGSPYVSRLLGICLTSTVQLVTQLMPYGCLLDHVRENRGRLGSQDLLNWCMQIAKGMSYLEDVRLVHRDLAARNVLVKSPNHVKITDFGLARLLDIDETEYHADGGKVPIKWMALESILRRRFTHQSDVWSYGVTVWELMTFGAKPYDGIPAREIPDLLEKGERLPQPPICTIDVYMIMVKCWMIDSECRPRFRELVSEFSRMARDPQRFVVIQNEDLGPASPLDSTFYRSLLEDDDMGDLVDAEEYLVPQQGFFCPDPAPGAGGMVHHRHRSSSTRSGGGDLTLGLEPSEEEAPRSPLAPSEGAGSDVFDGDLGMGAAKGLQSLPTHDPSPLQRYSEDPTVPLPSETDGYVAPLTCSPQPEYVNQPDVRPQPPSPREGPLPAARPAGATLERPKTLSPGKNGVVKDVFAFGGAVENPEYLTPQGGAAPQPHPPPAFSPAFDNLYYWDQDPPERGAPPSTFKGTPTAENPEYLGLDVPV

Regarding `C=C(COc1ccc2ccc(=O)oc2c1)C(=O)NCc1ccccc1` [1i], in [1], the “rate of depletion of 1i, k” value was found to be 0.24 h⁻¹ and the “rate of formation of coumarin, k” value was 0.24 h⁻¹.

Take `C#CCCNC(=O)C(=C)COc1ccc2ccc(=O)oc2c1` [2a]: the “in situ proteomic labeling (in-gel fluorescence)” value in experiment [2] is on record as “labeled more proteins compared to 2b”.

Turning to `C=C(C)C(=O)N1CCC[C@@H](n2nc(-c3ccc(Oc4ccccc4)cc3)c3c(N)ncnc32)C1` [3a], the IC50 in experiment [3] (BTK IC50, 0.6 nM BTK, 5 μM ATP, Figure 4C) amounted to 12.2 nM.

Turning to `C=C(COC(C)=O)C(=O)N1CCC[C@@H](n2nc(-c3ccc(Oc4ccccc4)cc3)c3c(N)ncnc32)C1` [3h], the IC50 in [4] is 28 nM; in experiment [3] (BTK IC50, in vitro kinase activity assay), under 0.1 nM; in [3] (BTK IC50, rounded, 2 h preincubation, 5 μM ATP), 0.1 nM; in [6], 0.6 nM; in [7] it was 0.3 nM; in [8], 196 nM. This compound also displayed an IC50 in experiment [9] of 295 nM. Moreover, the “B220+ cells-activated (CD86 positive)” value in [5] is 82.9%.

On to `C=C(COC(=O)OC)C(=O)N1CCC[C@@H](n2nc(-c3ccc(Oc4ccccc4)cc3)c3c(N)ncnc32)C1` [3i], for which the IC50 came to 31 nM in [4]; 0.8 nM in experiment [6]; 0.4 nM in experiment [7]; 172 nM in experiment [8]; 232 nM in experiment [9]. Moreover, the “B220+ cells-activated (CD86 positive)” value in experiment [5] came to 85.0%.

On to `O=c1c(O)c(-c2ccc(O)c(O)c2)oc2cc(O)cc(O)c12` [PCM-0065486], for which, in experiment [10], the “BTK inhibition (%)” value is 39.3%. The inhibition at 10 µM in [11] came out at 48.2%.

Turning to `Cc1cc(C2CCCCC2)n(O)c(=O)c1` [PCM-0086120], the “BTK inhibition (%)” value in experiment [10] worked out at 28%. Further, in experiment [11], the inhibition at 10 µM is 39.7%.

Turning to `CNCCc1ccccn1` [PCM-0086123], the “BTK inhibition (%)” value in [10] is 5.4%. The inhibition at 10 µM in [11] worked out at 5.5%.

For `COc1cc2nccc(Oc3ccc(NC(=O)C4(C(=O)Nc5ccc(F)cc5)CC4)cc3)c2cc1OC` [PCM-0094920], the “BTK inhibition (%)” value in experiment [10] is 123.4%. For the same compound, in experiment [11], the inhibition at 10 µM amounted to 86.9%.

Take `Cc1cc(Nc2cc(N3CCN(C)CC3)nc(/C=C/c3ccccc3)n2)n[nH]1` [PCM-0095056]: in experiment [10], the “BTK inhibition (%)” value is on record as 91%. In [11], the inhibition at 10 µM was 85.5%.

Take `COc1cc(Nc2ncc(F)c(Nc3ccc4c(n3)NC(=O)C(C)(C)O4)n2)cc(OC)c1OC` [PCM-0095093]: the “BTK inhibition (%)” value in experiment [10] was 31.7%. Moreover, the inhibition at 10 µM in experiment [11] worked out at 32.4%.

Turning to `CN(c1ncccc1CNc1nc(Nc2ccc3c(c2)CC(=O)N3)ncc1C(F)(F)F)S(C)(=O)=O` [PCM-0095340], the “BTK inhibition (%)” value in [10] worked out at 78.6%. Also, in [11], the inhibition at 10 µM is 84.8%.

As for `CN1CC[C@H](c2c(O)cc(O)c3c(=O)cc(-c4ccccc4Cl)oc23)[C@H](O)C1` [PCM-0095354], the “BTK inhibition (%)” value in experiment [10] amounted to 17.2%. In experiment [11], the inhibition at 10 µM was 29.7%.

Regarding `CN(C)[C@@H]1C(=O)C(C(N)=O)=C(O)[C@@]2(O)C(=O)C3=C(O)c4c(O)cccc4[C@@](C)(O)[C@H]3[C@H](O)[C@@H]12` [PCM-0214652], the “BTK inhibition (%)” value in experiment [10] was 33.5%. Moreover, in experiment [11], the inhibition at 10 µM was 35.8%.

`Cc1ccc(-n2[nH]c(C)c(N=Nc3cccc(-c4cccc(C(=O)O)c4)c3O)c2=O)cc1C` [PCM-0214811]: in experiment [10], the “BTK inhibition (%)” value is 77%. Also, in [11], the inhibition at 10 µM was 80.2%.
